Reference: patent publication US10047067B2, “Composition for treating kidney disease comprising pyrazole derivative” (Ewha University-Industry Collaboration Foundation, priority 2012, dated 2018)
Values belong to the molecule of their own block, whether it stands above or below them.

Tested on: collagen Iα1 expression in proximal tubular cells (mProx24)
Assay: Inhibitory effect on collagen Iα1 expression in proximal tubular cells (hTGF-β1 stimulated, real-time PCR)
Format: cell-based
Conditions: for mrna remaining at 0.01 µM / mrna remaining at 0.1 µM / mrna remaining at 1 µM / mrna remaining at 10 µM / inhibition at 0.01 µM / inhibition at 0.1 µM / inhibition at 1 µM / inhibition at 10 µM / IC50: Mus musculus; for mrna remaining at 0.01 µM / mrna remaining at 0.1 µM / mrna remaining at 1 µM / mrna remaining at 10 µM: Col1, mProx24, 5 ng/ml hTGF-β1 6 hrs, relative to hTGF-β1 alone = 1, read-out: Mean expression level ratio of collagen Iα1 (Col1α) to 18S rRNA; for mrna remaining at 0.01 µM / inhibition at 0.01 µM: 0.01 μM compound; for mrna remaining at 0.1 µM / inhibition at 0.1 µM: 0.1 μM compound; for mrna remaining at 1 µM / inhibition at 1 µM: 1 μM compound; for mrna remaining at 10 µM / inhibition at 10 µM: 10 μM compound; for inhibition at 0.01 µM / inhibition at 0.1 µM / inhibition at 1 µM / inhibition at 10 µM: mProx24, 100% = control without hTGF-β1, 0% = hTGF-β1 alone, read-out: expression inhibition rate (collagen Iα1); for IC50: mProx24, hTGF-β1 stimulated, read-out: IC50 (inhibition of collagen Iα1 expression)
Procedure: mProx24, which is a name of the proximal tubular cells derived from proximal tubule segments obtained by finely sectioning the kidney of adult C57BL6/J mice, was granted from Professor Sugaya, St. Marianna University School of Medicine, Kanagawa, Japan. mProx24 was cultured in DMEM (Dulbecco's modified Eagle's medium) supplemented with 10% fetal calf serum (FCS, Gibco), 100 U/ml penicillin, 100 μg/ml streptomycin, and 44 mM NaHCO3 at 37° C. in a 5% CO2 atmosphere. For quantitation of RNA expression, the cells were cultured in 6-well plates. When the cells grew 90% confluent, the medium was changed with a fresh 0.15% FCS (Gibco)-supplemented DMEM. Incubation in this medium for 24 hrs halted the cell growth to synchronize the growth cycle in the cells. Compounds of Examples 1 to 9 and Comparative Example were respectively dissolved in DMSO (dimethylsulfoxide) to form a concentration of 50 mM, and subjected to serial dilution to 10 mM, 1 mM, 0.1 mM, and 0.01 mM. 10 mM, 1 mM, 0.1 mM, and 0.01 mM solutions of each of the compounds of Examples 1 to 9 and Comparative Example were 1,000-fold diluted in 0.15% FCS (Gibco)-supplemented DMEM to form final concentrations of 10 μM, 1 μM, 0.1 μM, and 0.01 μM, respectively. In addition, 0 μM (DMSO 1 μL) was used. The cells were incubated for 1 hr in the dilutions and then for 6 hrs in the presence of 5 ng/ml recombinant human transforming growth factor-β1 (hTGF-β1, R&D Systems). For the control, hTGF-β1 was not used. Total RNA was extracted from mProx24 using Trizol (Invitrogen). For quantitation of mRNA expression, a reaction volume of 20 μL including cDNA transcripts, primer pairs, and SYBR Green PCR Master Mix (Applied Biosystems) was subjected to real-time PCR with the aid of StepOnePlus (Applied Biosystems) (real-time PCR condition: 95° C., 10 min→40 thermal cycles of denaturation at 95° C. for 15 sec and primer annealing at 60° C. for 1 min→95° C. for 15 sec, 60° C. for 1 min, and 95° C. for 15 sec to measure a melting curve). Quantitation was normalized to 18S rRNA expression level. A pair of primers for mouse collagen Iα1 were 5′-[…]-3′(SEQ ID NO: 13) and 5′-[…]-3′ (SEQ ID NO: 14). Forward and reverse primers for mouse r18S rRNA were 5′-CGAAAGCATTTGCCAAGAAT-3′ (SEQ ID NO: 11) and 5′-AGTCGGCATCGTTTATGGTC-3′ (SEQ ID NO: 12), respectively.
Experiment results are given in Tables 3 to 12 and FIGS. 4 to 13. Tables 3 to 12 and FIGS. 4 to 13 show inhibitory effects of the compounds of Examples 1 to 9 and Comparative Example 1 on collagen Iα1 expression in proximal tubular cells.
Data of Tables 3 to 12 and FIGS. 4 to 13 are measurements of experiments repeated three to five times for each concentration, and are expressed as mean±standard error (SE). Statistic comparison among the groups was analyzed by ANOVA and Fisher's least significant difference test, with significance at p<0.05. *P<0.05 vs. WT, †P<0.05 vs. DM.
In Tables 3 to 12, mean values of expression level ratios of collagen Iα1 (Col1α) to 18S rRNA (18S), and % inhibition against collagen Iα1 expression for each group are shown, together with IC50 value (μM). In this regard, % inhibition means relative inhibition to 100% for the control and 0% for the group that was treated with hTGF-β1 but not with any of the compounds of Examples or Comparative Example.

- IC50: 3.19 µM
Compound: COc1cccc(-c2cc(O)n(-c3ccccn3)n2)c1 [Compound 18-001, 3-(3-Methoxyphenyl)-1-(Pyridin-2-yl)-1H-Pyrazol-5-ol]
- mrna remaining at 0.01 µM: 74.8%
- mrna remaining at 0.1 µM: 69.8%
- mrna remaining at 1 µM: 64.2%
- mrna remaining at 10 µM: 34.5%
- inhibition at 0.01 µM: 31%
- inhibition at 0.1 µM: 37.1%
- inhibition at 1 µM: 44%
- inhibition at 10 µM: 80.5%

- IC50: 2.14 µM
Compound: Oc1cc(-c2ccc(Br)cc2)nn1-c1ccccn1 [Compound 18-066, 3-(4-bromophenyl)-1-(pyridin-2-yl)-1H-pyrazol-5-ol]
- mrna remaining at 0.01 µM: 78.5%
- mrna remaining at 0.1 µM: 71.7%
- mrna remaining at 1 µM: 72.6%
- mrna remaining at 10 µM: 58.3%
- inhibition at 0.01 µM: 30.2%
- inhibition at 0.1 µM: 39.8%
- inhibition at 1 µM: 38.5%
- inhibition at 10 µM: 58.6%

- IC50: 0.299 µM
Compound: CC(=O)Oc1cc(-c2ccc(Br)cc2)nn1-c1ccccn1 [Compound 18-067, 3-(4-bromophenyl)-1-(pyridin-2-yl)-1H-pyrazol-5-yl acetate]
- mrna remaining at 0.01 µM: 70%
- mrna remaining at 0.1 µM: 60.7%
- mrna remaining at 1 µM: 56.2%
- mrna remaining at 10 µM: 32.5%
- inhibition at 0.01 µM: 35.6%
- inhibition at 0.1 µM: 46.6%
- inhibition at 1 µM: 52%
- inhibition at 10 µM: 80.1%

- IC50: 0.105 µM
Compound: Oc1cc(-c2cccc(I)c2)nn1-c1ccccn1 [Compound 18-082, 3-(3-iodophenyl)-1-(pyridin-2-yl)-1H-pyrazol-5-ol]
- mrna remaining at 0.01 µM: 71%
- mrna remaining at 0.1 µM: 60.5%
- mrna remaining at 1 µM: 39.1%
- mrna remaining at 10 µM: 31.2%
- inhibition at 0.01 µM: 39.5%
- inhibition at 0.1 µM: 53.8%
- inhibition at 1 µM: 83%
- inhibition at 10 µM: 93.7%

- IC50: 0.227 µM
Compound: Oc1cc(COc2ccc3ccccc3c2)nn1-c1ccccn1 [Compound 18-095, 3-((naphthalen-3-yloxy)methyl)-1-(pyridin-2-yl)-1H-pyrazol-5-ol]
- mrna remaining at 0.01 µM: 69.9%
- mrna remaining at 0.1 µM: 66.3%
- mrna remaining at 1 µM: 50.4%
- mrna remaining at 10 µM: 26.8%
- inhibition at 0.01 µM: 37.2%
- inhibition at 0.1 µM: 41.7%
- inhibition at 1 µM: 61.4%
- inhibition at 10 µM: 90.6%

- IC50: 1.31 µM
Compound: Oc1cc(-c2ccccc2-c2ccc3c(c2)OCO3)nn1-c1ccccn1 [Compound 18-177, 3-(2-(benzo[d][1,3]dioxol-5-yl)phenyl)-1-(pyridin-2-yl)-1H-pyrazol-5-ol]
- mrna remaining at 0.01 µM: 96%
- mrna remaining at 0.1 µM: 83.9%
- mrna remaining at 1 µM: 74.2%
- mrna remaining at 10 µM: 43.8%
- inhibition at 0.01 µM: 5.46%
- inhibition at 0.1 µM: 22%
- inhibition at 1 µM: 35.2%
- inhibition at 10 µM: 76.7%

- IC50: 0.078 µM
Compound: Oc1cc(-c2ccc(-c3ccccc3)cc2)nn1-c1ncccn1 [Compound 18-186, 3-(biphenyl-4-yl)-1-(pyrimidin-2-yl)-1H-pyrazol-5-ol]
- mrna remaining at 0.01 µM: 82.5%
- mrna remaining at 0.1 µM: 56.9%
- mrna remaining at 1 µM: 58.6%
- mrna remaining at 10 µM: 58.3%
- inhibition at 0.01 µM: 22.5%
- inhibition at 0.1 µM: 55.4%
- inhibition at 1 µM: 53.2%
- inhibition at 10 µM: 53.6%

- IC50: 10.2 µM
Compound: c1ccc(COc2c(Cc3ccccc3)c(-c3ccccc3)nn2-c2ccccn2)cc1 [Compound 18-233, 3-Phenyl-4-Benzyl-5-Benzyloxy-1-(2-Pyridinyl)Pyrazole, reference compound]
- mrna remaining at 0.01 µM: 93.3%
- mrna remaining at 0.1 µM: 75.7%
- mrna remaining at 1 µM: 71.2%
- mrna remaining at 10 µM: 65.6%
- inhibition at 0.01 µM: 8.23%
- inhibition at 0.1 µM: 29.9%
- inhibition at 1 µM: 35.4%
- inhibition at 10 µM: 42.3%
- expression of the extracellular matrix, collagen Iα1 (Col1α), in proximal tubular cells (result in words): decreased the expression level

- IC50: 1.78 µM
Compound: CCCc1c(/C=C/c2ccc(O)c(OC)c2)nn(-c2ccccn2)c1O [Compound 18-273, 3-{2-(4-hydroxy-3-methoxyphenyl)vinyl}-4-propyl-1-(2-pyridinyl)pyrazol-5-ol]
- mrna remaining at 0.01 µM: 40.8%
- mrna remaining at 0.1 µM: 83.5%
- mrna remaining at 1 µM: 83.2%
- mrna remaining at 10 µM: 46%
- inhibition at 0.01 µM: 82.6%
- inhibition at 0.1 µM: 23%
- inhibition at 1 µM: 23.4%
- inhibition at 10 µM: 75.3%
